# Measurements: patent publication US12365667B2, “Sulfone pyridine alkyl amide-substituted heteroaryl compounds” (BRISTOL-MYERS SQUIBB COMPANY, priority 2017, dated 2025)
# Tested on: IFNα-induced STAT phosphorylation (pSTAT5) in human whole blood
# Test: IFNα-Induced STAT Phosphorylation in Human Whole Blood
# Assay type: cell-based
# Details: 1 h incubation with compound, 1000 U/mL recombinant human IFNα A/D for 15 min, pSTAT5 in CD3 positive population, read-out: IFNα-Induced Stat Phosph. (IC50)
# Method: IFNα-Induced STAT Phosphorylation in Human Whole Blood
# After an hour long incubation with compound, human whole blood (drawn with either EDTA or ACD-A as anti-coagulant) was stimulated with 1000 U/mL recombinant human IFNα A/D (R&D Systems 11200-2) for 15 min. The stimulation was stopped by adding Fix/Lyse buffer (BD 558049). Cells were stained with a CD3 FITC antibody (BD 555916), washed, and permeabilized on ice using Perm III buffer (BD 558050). Cells were then stained with an Alexa-Fluor 647 pSTAT5 (pY694) antibody (BD 612599) for 30 min prior to analysis on the FACS Canto II. The amount of pSTAT5 expression was quantitated by median fluorescence intensity after gating on the CD3 positive population.
row,IC50,Structure (SMILES)
1,88 nM,CNC(=O)c1nnc(Nc2cccc(C(F)(F)F)n2)cc1Nc1ncccc1S(C)(=O)=O [Example 113]
2,211 nM,CNC(=O)c1nnc(Nc2ccn3nccc3n2)cc1Nc1nc(C)ccc1S(C)(=O)=O [Example 195]
3,22 nM,CNC(=O)c1cnc(Nc2cc(C#N)c(C)cn2)cc1Nc1ncccc1S(C)(=O)=O [Example 230]
4,43 nM,CNC(=O)c1nnc(Nc2ccc(C(F)(F)F)cn2)cc1Nc1ncccc1S(C)(=O)=O [Example 91]
5,18 nM,CNC(=O)c1nnc(Nc2cn(C3CC3)nn2)cc1Nc1ncccc1S(C)(=O)=O [Example 56]
6,76 nM,CCOc1ccc(Nc2cc(Nc3ncccc3S(C)(=O)=O)c(C(=O)NC)nn2)nn1 [Example 83]
7,408 nM,CCOc1cc(Nc2cc(Nc3ncccc3S(C)(=O)=O)c(C(=O)NC)nn2)ncc1C(=O)NC1CC1 [Example 148]
8,12 nM,CNC(=O)c1nnc(Nc2ccc(N3CCOCC3=O)cn2)cc1Nc1nc(C)ccc1S(C)(=O)=O [Example 196]
9,44 nM,CNC(=O)c1cnc(Nc2cccnn2)cc1Nc1ncccc1S(C)(=O)=O [Example 224]
10,447 nM,CNC(=O)c1nnc(Nc2ccnc(C(F)(F)F)n2)cc1Nc1ncccc1S(C)(=O)=O [Example 138]
11,92 nM,CNC(=O)c1nnc(Nc2cc(C(F)(F)F)c(C(=O)N(C)C3CC3)cn2)cc1Nc1ncccc1S(C)(=O)=O [Example 52]
12,61 nM,CNC(=O)c1cnc(Nc2cc(C)c(C#N)cn2)cc1Nc1ncccc1S(C)(=O)=O [Example 233]
13,417 nM,CNC(=O)c1nnc(Nc2cc(F)c(F)cn2)cc1Nc1ncccc1S(C)(=O)=O [Example 87]
14,24 nM,CNC(=O)c1nnc(Nc2cc(C3CC3)nc(COC)n2)cc1Nc1ncccc1S(C)(=O)=O [Example 41]
15,203 nM,CCC(=O)Nc1cc(Nc2nc(C)ccc2S(C)(=O)=O)c(C(=O)NC)cn1 [Example 241]
16,893 nM,CNC(=O)c1nnc(NC(=O)CC(C)(C)C)cc1Nc1ncccc1S(C)(=O)=O [Example 139]
17,32 nM,CNC(=O)c1nnc(Nc2cc(F)ccn2)cc1Nc1ncccc1S(C)(=O)=O [Example 4]
18,13 nM,CCOC(=O)N1CCN(c2ccc(Nc3cc(Nc4ncccc4S(C)(=O)=O)c(C(=O)NC)nn3)nc2)CC1 [Example 107]
19,80 nM,CNC(=O)c1nnc(NC(=O)CC(C)C)cc1Nc1ncccc1S(C)(=O)=O [Example 129]
20,13 nM,CNC(=O)c1cnc(Nc2cc(C#N)ccn2)cc1Nc1ncccc1S(C)(=O)=O [Example 221]
21,16 nM,CNC(=O)c1nnc(Nc2ccc(N3CCOCC3C)cn2)cc1Nc1ncccc1S(C)(=O)=O (centres unmarked) [Example 103]
22,61 nM,CNC(=O)c1nnc(NC(=O)C=C2CCCCC2)cc1Nc1ncccc1S(C)(=O)=O [Example 128]
23,141 nM,CCOc1cc(Nc2cc(Nc3ncccc3S(C)(=O)=O)c(C(=O)NC)nn2)ncc1C(C)(C)O [Example 149]
24,49 nM,CNC(=O)c1nnc(Nc2cc(C)nc(C)n2)cc1Nc1ncccc1S(C)(=O)=O [Example 98]

row,IC50,Structure (SMILES)
1,131 nM,CNC(=O)c1cnc(Nc2cc(C#N)c(C(F)(F)F)cn2)cc1Nc1ncccc1S(C)(=O)=O [Example 232]
2,88 nM,CNC(=O)c1nnc(NC(=O)CC2CC2)cc1Nc1ncccc1S(C)(=O)=O [Example 164]
3,1570 nM,CNC(=O)c1nnc(NC(=O)COCc2ccccc2)cc1Nc1ncccc1S(C)(=O)=O [Example 133]
4,21 nM,CNC(=O)c1nnc(Nc2ccc(C)cn2)cc1Nc1ncccc1S(C)(=O)=O [Example 10]
5,58 nM,CNC(=O)c1nnc(NC(=O)[C@H]2C[C@@H]2C)cc1Nc1ncccc1S(C)(=O)=O [Example 49]
6,52 nM,CNC(=O)c1cnc(Nc2ccc(Cl)cn2)cc1Nc1ncccc1S(C)(=O)=O [Example 217]
7,66 nM,CCNC(=O)Nc1cc(Nc2nc(C)ccc2S(C)(=O)=O)c(C(=O)NC)nn1 [Example 191]
8,190 nM,CNC(=O)c1nnc(Nc2cncc(-c3ccccc3)n2)cc1Nc1ncccc1S(C)(=O)=O [Example 115]
9,28 nM,CNC(=O)c1cnc(Nc2ccccn2)cc1Nc1ncccc1S(C)(=O)=O [Example 216]
10,59 nM,CCCn1cc(Nc2cc(Nc3ncccc3S(C)(=O)=O)c(C(=O)NC)nn2)nn1 [Example 57]
11,35 nM,CNC(=O)c1nnc(Nc2cc(Cl)c(C(C)(C)O)cn2)cc1Nc1nc(C)ccc1S(C)(=O)=O [Example 194]
12,37 nM,CNC(=O)c1nnc(Nc2cccc(C)n2)cc1Nc1ncccc1S(C)(=O)=O [Example 82]
13,272 nM,"CNC(=O)c1nnc(NC(=O)C2CC(F)C2)cc1Nc1ncccc1S(C)(=O)=O (single isomer, unassigned) [Example 125]"
14,132 nM,CNC(=O)c1nnc(Nc2cn(C)nn2)cc1Nc1ncccc1S(C)(=O)=O [Example 53]
15,165 nM,CCCCNC(=O)Nc1cc(Nc2nc(C)ccc2S(C)(=O)=O)c(C(=O)NC)nn1 [Example 193]
16,744 nM,CNC(=O)c1nnc(Nc2ccn(C)n2)cc1Nc1ncccc1[S+](C)[O-] (centres unmarked) [Example 256]
17,349 nM,CCCOC(=O)Nc1cc(Nc2ncccc2S(C)(=O)=O)c(C(=O)NC)nn1 [Example 136]
18,48 nM,CNC(=O)c1nnc(NC(=O)C2CC23CC3)cc1Nc1ncccc1S(C)(=O)=O (centres unmarked) [Example 47]
19,32 nM,CNC(=O)c1nnc(Nc2ccc(-n3cc(Cl)ccc3=O)cn2)cc1Nc1ncccc1S(C)(=O)=O [Example 89]
20,61 nM,CNC(=O)c1nnc(Nc2ccc(-n3cccc(C(F)(F)F)c3=O)cn2)cc1Nc1nc(C)ccc1S(C)(=O)=O [Example 190]
21,13 nM,CNC(=O)c1cnc(NC(=O)C2CC2)cc1Nc1ncccc1S(C)(=O)=O [Example 236]
22,115 nM,CNC(=O)c1cnc(Nc2ccc(OC(F)(F)F)cn2)cc1Nc1ncccc1S(C)(=O)=O [Example 240]
23,132 nM,CCC(=O)Nc1cc(Nc2nc(C)ccc2S(C)(=O)=O)c(C(=O)NC)nn1 [Example 186]
24,18 nM,CNC(=O)c1nnc(Nc2cc(C)nc(C3CC3)n2)cc1Nc1ncccc1S(C)(=O)=O [Example 61]

row,Structure (SMILES),IC50
1,CNC(=O)c1nnc(Nc2ccn(CC(F)F)n2)cc1Nc1ncccc1S(C)(=O)=O [Example 20],47 nM
2,CNC(=O)c1nnc(Nc2ccc(C(C)(C)NC(C)=O)cn2)cc1Nc1ncccc1S(C)(=O)=O [Example 25],15 nM

# Same assay, conditions: Homo sapiens, 1 h incubation with compound, 1000 U/mL recombinant human IFNα A/D for 15 min, pSTAT5 in CD3 positive population, read-out: IFNα-Induced Stat Phosph. (IC50)
row,IC50,Structure (SMILES)
1,7 nM,"[2H]C([2H])([2H])NC(=O)c1nnc(Nc2cccnn2)cc1Nc1ncccc1S(C)(=O)=O [Example 251, N-(methyl-d3)-4-((3-(methylsulfonyl)pyridin-2-yl)amino)-6-(pyridazin-3-ylamino)pyridazine-3-carboxamide]"
2,18 nM,"[2H]C([2H])([2H])NC(=O)c1nnc(Nc2ccc(C(F)F)cn2)cc1Nc1ncccc1S(C)(=O)=O [Example 172, 6-((5-(difluoromethyl)pyridin-2-yl)amino)-N-(methyl-d3)-4-((3-(methylsulfonyl)pyridin-2-yl)amino)pyridazine-3-carboxamide]"
3,229 nM,"[2H]C([2H])([2H])NC(=O)c1nnc(Nc2ccc(C(C)(C)O)cc2)cc1Nc1nc(C2CC2)ccc1S(C)(=O)=O [Example 207, 4-((6-cyclopropyl-3-(methylsulfonyl)pyridin-2-yl)amino)-6-((4-(2-hydroxypropan-2-yl)phenyl)amino)-N-(methyl-d3)pyridazine-3-carboxamide]"
